{
  "source": "paper PMC6050476",
  "about": "“Pre-clinical Pharmacokinetic and Metabolomic Analyses of Isorhapontigenin, a Dietary Resveratrol Derivative” (Frontiers in Pharmacology, 2018)",
  "key": {"[1]": {"assay": "Stability of isorhapontigenin in rat plasma QC samples under different storage conditions", "assay_type": "in vitro ADME, Sprague-Dawley rat", "settings": "for Freeze thaw stability (% remaining): 3 cycles; for Post preparative stability (% remaining): 4 °C, 6 h; for Long term stability (% remaining): -80 °C, 14 days; for Short term stability (% remaining): on ice, 3 h", "procedure": "Stock solutions of ISO were prepared by dissolution in DMSO and they were stored at room temperature. The stock solutions were further diluted using blank rat plasma to prepare the calibration standards and QC samples. The stock solution of IS was dissolved in acetonitrile to a concentration of 10 μg/mL. 100 μL IS solution was aliquoted into 1.5-mL polypropylene tubes for storage at −80°C. During sample preparation, this solution was further diluted to the working concentration of 10 ng/mL using acetonitrile containing 0.18 μM of disodium EDTA and stored at 4°C.\nThe calibration range was 1–1000 ng/mL. A simple protein precipitation procedure was used for sample cleanup prior to LC–MS/MS analysis ([Chen et al., 2015], [2016b]). Three volumes of 10 ng/mL IS working solution (^13C isotopically labeled resveratrol in acetonitrile–0.18 μM disodium EDTA) were added to one volume of plasma sample spiked with of L-ascorbic acid at a final concentration of 0.8 mg/mL. After vigorous vortex, centrifugation of samples was performed at 15,000 g for 10 min at 4°C. Subsequently, the clear supernatants were transferred into HPLC vials. During each LC–MS/MS analysis, 1 μL of supernatant was injected into the system.\nThe dilution integrity was confirmed using a dilution factor of 20. In the presence of L-ascorbic acid (0.8 mg/mL), ISO appeared to stable in plasma; similarly, addition of EDTA in IS acetonitrile solution (0.18 μM) enhanced the post-preparative stability. The details in accuracy, precision, stability, and matrix effect can be found in Supplementary Tables S1–S3."}, "[2]": {"tested_on": "plasma metabolites", "assay": "Plasma metabolomic profiling after 1-week isorhapontigenin intervention (GC–MS/MS)", "assay_type": "in vivo, Sprague-Dawley rats", "settings": "1-week daily oral ISO 100 μmol/kg vs vehicle, rat plasma", "procedure": "Twenty-two rats were divided into four groups. Group 1 (n = 5) received a single bolus intravenous injection of ISO at the dose of 90 μmol/kg (23.2 mg/kg). Serial blood samples were collected before dosing and at 5, 15, 30, 60, 90, 120, 180, 240, 300, 420, 540, and 720 min after intravenous injection. Group 2 (n = 5) received a single oral administration of ISO at the dose of 200 μmol/kg (51.6 mg/kg). Serial blood samples were collected before dosing and at 15, 30, 45, 60, 90, 120, 180, 240, 300, 420, 540, and 720 min after oral gavage. Group 3 (n = 5) received daily oral pre-treatment of oral dosing vehicle (2 mL/kg) while Group 4 (n = 7) received daily oral pre-treatment of ISO at the dose of 100 μmol/kg (25.8 mg/kg) for 1 week. On day 7, ∼8–10 h after the last pre-treatment dose, surgery was performed on rats in Groups 3 and 4 for jugular vein cannulation, and blood samples were also collected from Groups 3 and 4 for metabolomic study. On day 8, the pharmacokinetic study was carried out on these two groups of animals at the dose of 100 μmol/kg (25.8 mg/kg) using the same blood sampling schedule as Group 2.\nThe plasma samples collected from rats receiving 1-week daily oral dosing of ISO at 100 μmol/kg (25.8 mg/kg) were subjected to metabolomic study using the rats receiving vehicle as control.\nPlasma samples (30 μL aliquots in Eppendorf tubes) were thawed to room temperature (25°C). Myristic-d27 acid (20 μL of 200 μg/mL solution in methanol, IS) and 200 μL of methanol were added to each sample. Samples were vortexed for 5 min at room temperature and centrifuged for 10 min at 15,000 g (4°C). The top 200 μL of each supernatant was transferred to a glass centrifuge tube and dried under nitrogen gas. The dried samples were re-suspended in 100 μL of toluene, vortexed vigorously for 10 s, and dried again under nitrogen. A two-step derivatization method was used for chemical derivatization of the metabolites. Samples were first incubated with 50 μL of 2% methoxy-amine chloride in pyridine for 1.5 h at 60°C. Next, 50 μL of […] was added and the samples were incubated again for 1 h at 60°C. A total of 80 μL of derivatized samples were transferred to glass vials for GC–MS/MS analysis ([Chen et al., 2016a]). Pooled rat plasma from different plasma samples was used as QC and distilled water as blank samples. Two pooled plasma samples were injected before the first study sample and three pooled plasma samples were injected after every six study samples which serve as QC. The blank samples were injected at the beginning, at the middle, and at the end of the sample batch ([Phua et al., 2015]; [Chen et al., 2016a]).\nGC–MS/MS analysis was performed using a Shimadzu TQ8040 gas chromatography-triple quadrupole mass spectrometer (Shimadzu Corporation, Japan). The GC injector port was set at 250°C and injection volume was 1 μL with a spilt ratio of 1:10. Chromatographic separation was achieved by a capillary column (BPX-5, 30 m × 0.25 mm × 0.25 μm, SGE Analytical Science, Australia) through constant helium carrier gas flow at 1.14 mL/min. The oven temperature was first held at 60°C for 2 min, followed by increasing temperature ramp of 15°C/min to 330°C, and then held at 330°C for 3 min. The interface and ion source were set at 280 and 200°C, respectively. The mass spectrometer was operated in the MRM mode.\nThe Shimadzu Smart Metabolites Database (Shimadzu Corporation, Japan) which contains a panel of 475 different endogenous metabolites was applied to identify the metabolites in rat plasma samples in this widely targeted metabolomics analysis. This database contains the retention indices and two MRM transitions of each of the 475 endogenous metabolites which facilitate simple, fast, and reliable metabolite identification and semi-quantification. This strategy has been successfully applied to many studies ([Hashimoto et al., 2017]; [Nishiumi et al., 2017]; [Tomonaga et al., 2018]). […]"}},
  "data": [
    {"smiles": "COc1cc(/C=C/c2cc(O)cc(O)c2)ccc1O", "note": "[isorhapontigenin, trans-3,5,4′-trihydroxy-3′-methoxystilbene]", "values": [
      {"measurement": "Freeze thaw stability (% remaining)", "setting": "[1]; QC 2 ng/ml in rat plasma", "result": "98.4 ± 7.6", "unit": "% remaining"},
      {"measurement": "Freeze thaw stability (% remaining)", "setting": "[1]; QC 400 ng/ml in rat plasma", "result": "94.0 ± 2.4", "unit": "% remaining"},
      {"measurement": "Freeze thaw stability (% remaining)", "setting": "[1]; QC 800 ng/ml in rat plasma", "result": "92.3 ± 1.2", "unit": "% remaining"},
      {"measurement": "Post preparative stability (% remaining)", "setting": "[1]; QC 2 ng/ml", "result": "108.0 ± 6.1", "unit": "% remaining"},
      {"measurement": "Post preparative stability (% remaining)", "setting": "[1]; QC 400 ng/ml", "result": "108.0 ± 1.0", "unit": "% remaining"},
      {"measurement": "Post preparative stability (% remaining)", "setting": "[1]; QC 800 ng/ml", "result": "108.0 ± 4.1", "unit": "% remaining"},
      {"measurement": "Long term stability (% remaining)", "setting": "[1]; QC 2 ng/ml in rat plasma", "result": "87.9 ± 2.5", "unit": "% remaining"},
      {"measurement": "Long term stability (% remaining)", "setting": "[1]; QC 400 ng/ml in rat plasma", "result": "101.0 ± 3.0", "unit": "% remaining"},
      {"measurement": "Long term stability (% remaining)", "setting": "[1]; QC 800 ng/ml in rat plasma", "result": "97.0 ± 6.5", "unit": "% remaining"},
      {"measurement": "Short term stability (% remaining)", "setting": "[1]; QC 2 ng/ml in rat plasma", "result": "104.0 ± 6.0", "unit": "% remaining"},
      {"measurement": "Short term stability (% remaining)", "setting": "[1]; QC 400 ng/ml in rat plasma", "result": "102.0 ± 5.4", "unit": "% remaining"},
      {"measurement": "Short term stability (% remaining)", "setting": "[1]; QC 800 ng/ml in rat plasma", "result": "98.7 ± 6.4", "unit": "% remaining"},
      {"measurement": "Fold change of plasma 2-Aminoisobutyric acid", "setting": "[2]", "result": 1.351},
      {"measurement": "Fold change of plasma 4-Hydroxyproline", "setting": "[2]", "result": 0.564},
      {"measurement": "Fold change of plasma Acetylglycine", "setting": "[2]", "result": 0.508},
      {"measurement": "Fold change of plasma Allantoin", "setting": "[2]", "result": 0.545},
      {"measurement": "Fold change of plasma Arachidonic acid", "setting": "[2]", "result": 0.789},
      {"measurement": "Fold change of plasma Aspartic acid", "setting": "[2]", "result": 0.475},
      {"measurement": "Fold change of plasma Cadaverine", "setting": "[2]", "result": 0.54},
      {"measurement": "Fold change of plasma Catechol", "setting": "[2]", "result": 1.411},
      {"measurement": "Fold change of plasma Cholesterol", "setting": "[2]", "result": 0.789},
      {"measurement": "Fold change of plasma Eicosapentaenoic acid", "setting": "[2]", "result": 0.762},
      {"measurement": "Fold change of plasma Fructose", "setting": "[2]", "result": 0.608},
      {"measurement": "Fold change of plasma Glycerol 2-phosphate", "setting": "[2]", "result": 0.73},
      {"measurement": "Fold change of plasma Glycyl-glycine", "setting": "[2]", "result": 0.648},
      {"measurement": "Fold change of plasma Linoleic acid", "setting": "[2]", "result": 0.82},
      {"measurement": "Fold change of plasma N-Acetyl-ornithine", "setting": "[2]", "result": 0.474},
      {"measurement": "Fold change of plasma N-Acetylglutamine", "setting": "[2]", "result": 0.804},
      {"measurement": "Fold change of plasma Psicose", "setting": "[2]", "result": 0.709},
      {"measurement": "Fold change of plasma Sorbose", "setting": "[2]", "result": 0.698},
      {"measurement": "Fold change of plasma Tagatose", "setting": "[2]", "result": 0.705},
      {"measurement": "Fold change of plasma Thymine", "setting": "[2]", "result": 1.198},
      {"measurement": "Fold change of plasma Tryptamine", "setting": "[2]", "result": 1.469},
      {"measurement": "effect on plasma glucose levels", "setting": "[2]; no food restriction", "result": "did not change glucose levels"}
    ]}
  ]
}
